This passage reports melting point results from a melting point compilation (Tetko et al.; mined from patent text by program, amines drawn as free bases though some values may be those of a salt).

Bounds are passed on as bounds.

By melting point is commonly meant the temperature, or range, at which the solid turns liquid.

On to `COc1cc(C(O)(C(F)(F)F)C(F)(F)F)cc(Br)c1NS(C)(=O)=O`, for which the melting point was 38 to 41 °C.
Under `CC(C)C(C(=O)O)c1onc(-c2ccccc2)c1-c1ccc(S(N)(=O)=O)cc1` (centres undefined) stands 148 to 149 °C.
Under `CC(=O)NC1CCC2=C(CC1)C(=O)CC=C2` (centres undefined) stands 115 to 116 °C; under `[O-][N+]1=C(c2ccccc2)C2=NCCN2c2cc(N3CCNCC3)ccc21`, 209 to 211 °C.
The compound `COc1cc(Nc2nccc(-c3ccc(NCCCN4CCN(C)CC4)nc3)n2)cc(OC)c1OC` returned a melting point of 183 to 184 °C.
Compound `CCCCCCCCCCCCCCCCCCOc1cc(OCCCCC(=O)OC)cc(N(CC(=O)OCc2ccccc2)CC(=O)OCc2ccccc2)c1` registered a melting point of 48 to 50 °C.
`CCCOc1ccc(S(=O)(=O)N2CCN(C)CC2)cc1-c1nc2cc(Cl)c([N+](=O)[O-])cc2c(=O)[nH]1`: the melting point lay in the range of 225 to 228 °C.
Under `O=C1NC(=O)N2c3ccc(Cl)cc3[C@H]3CCN4CCC[C@H]1[C@H]4[C@H]32` (racemic) stands 243 °C; under `Nc1cccc(CC2COc3ccc(OCc4ccc5ccc(Cl)cc5n4)cc3C2)c1` (single isomer, unassigned; (+)), 128 to 130 °C; under `Cc1c(Cc2cccc(C(F)(F)F)c2)oc2cccc(-c3cccc(C(=O)O)c3)c12`, 169 to 170 °C.
`C#CCNc1ccc([N+](=O)[O-])cc1C` showed a melting point of 121 to 123 °C.
The compound `Cc1c[nH]c(Cc2ccccc2[N+](=O)[O-])n1` gave a melting point of 125 to 128 °C.
As for `COc1cc2c(cc1Nc1ncc(Cl)c(Nc3ccc(N4CCOCC4)cc3OC)n1)CCN(CC(=O)N1CCCC1)CC2`, the melting point was in the range of 82 to 105 °C.
`COc1ccc2c([N+](=O)[O-])c(-c3ccc(OCc4ccccc4)cc3)[nH]c(=O)c2c1`: the melting point was in the range of 252 to 254 °C.
For `CCc1[nH]n(C2CCCC2)c2nc(Cc3ccc(C(F)(F)F)cc3)nc(=O)c1-2`, the melting point lay in the range of 212 to 213 °C.
Under `Cc1cc(C)n(C(=O)CNS(=O)(=O)c2ccc(Cl)cc2)n1` stands 135 to 136 °C.
For `COC(=O)C1CCCc2c(noc2-c2ccc(Cl)cc2)C1` (centres undefined) the value was 94 to 95 °C.
`COc1cc2c(c(Cl)c1Cl)C(=O)C(CCCCCl)C2` (centres undefined) came in with a melting point of 92 °C.
As for `O=CNc1csc(Br)n1`, the melting point was 167 °C.
For `CC(C)(C)OC(=O)/C(=C/c1ccc2ccccc2c1)C(=O)c1ccccc1O` the value was 111 to 112 °C; for `CCCCCCCCCCCCn1sncc1=O`, 68 to 70 °C.
Take `O=c1c2ccccc2c(-c2ccccc2)cn1CCCCl`: the melting point came out at 138 °C.
The compound `Nc1nccc2ccc(OS(=O)(=O)C(F)(F)F)cc12` came in with a melting point of 115 to 118 °C.
`O=C(NC1CCN(CCC2CCOc3ccccc32)CC1)c1ccncc1` (centres undefined) gave a melting point of 122 to 123 °C.
The compound `CC#Cc1ncn2c1CN(C)C(=O)c1c(Cl)cccc1-2` came in with a melting point of 243 to 244 °C.
`CN(C1CCN(C(=O)OC(C)(C)C)CC1)S(=O)(=O)c1ccc(Nc2nccc(Nc3ccc(F)cc3)n2)cc1` had a melting point of 174 to 176 °C.
For `O=C1CC(c2cccc(-n3ccnc3)c2)=Nc2cc(N3CCOC3=O)c(-c3ccc(F)cc3)cc2N1`, the melting point amounted to 230 °C.
Under `CC(=O)N1CCC(C(=O)Nc2ccccc2Oc2ccc(Cl)cc2Cl)CC1` stands 194 to 196 °C; under `CN1CCN(C(=O)Cn2nnnc2S)CC1`, more than 250 °C.
`O=C1N(CCN2CCCC2)CCN1c1ccc(-c2nnc(CSCCOc3ccccc3)o2)cc1` registered a melting point of 125 to 129 °C.
In turn, `O=c1nc(-c2ccnc(-c3ccccc3)c2)sc2ccccc12` came in with a melting point of 163 °C.
For `CC(C)(C)C1CCC(C(=O)Nc2ccncc2)CC1` (centres undefined) the value was 150 to 151 °C.
`O=C(Nc1ccc2ccc(Oc3ccccc3)nc2n1)c1ccoc1` displayed a melting point of 102 °C.
For `Cc1cc(-c2noc(N(C)C)n2)ccc1-c1ccc(C(=O)N2CCCc3cc4c(cc32)C2(CCN(C)CC2)CO4)cc1` the value was 118 to 120 °C.
Under `CN(Cc1ccccc1)C1CCN(c2ccc(N)cc2)CC1` stands 138 °C.
Consider `CC(=O)N1CC2CC2(c2ccccc2)C1` (centres undefined), for which the melting point lay within 63 to 65 °C.
`COc1ccc(-c2[nH]nc3c2C(=O)c2c(NC(=O)CN4CCN(CCN)CC4)cccc2-3)cc1`: the melting point is more than 300 °C.
In the case of `CC(=O)c1cc(F)c(OCCOc2ccc3ccccc3c2)c(F)c1`, the melting point is 108 to 110 °C.
With `Cc1ccc(C(=O)Nc2ccc(CN3CCCC3)c(C(F)(F)F)c2)cc1Br`, the melting point lay within 168 to 170 °C.
For `Cc1cc(SCc2cccc3nn(-c4ccc(C(F)(F)F)cc4)cc23)ccc1OCC(=O)O` the value was 105 to 108 °C; for `CCCOc1ccc(-c2scc(-c3ccccc3Cl)c2CC(=O)NC(=N)NCCCO)c(C)c1`, 103 to 106 °C.
Under `COC(=O)c1ccc(OC)c(C=O)c1` stands 98 to 102 °C; under `CC(C)n1nc(-c2cnc(Nc3ccccc3)nc2-c2ccccc2)ccc1=O`, 200 to 202 °C.
For the compound `CC(Oc1ccc(Oc2cnc3ccccc3n2)cc1)C(=O)O` (centres undefined), the melting point was 137 to 141 °C.
Under `CNC(=O)c1cccc(NCC(=O)NCCc2ccc(OC)c(OC)c2)c1` stands 93 to 96.5 °C; under `COc1cc(N2CCN([C@H]3CC[C@H](c4cn(C)c5ccc(C#N)cc54)CC3)CC2)c2nccc(C)c2c1`, 230 to 232 °C; under `CCCCCCCCCCCCCCN(O)CCCCCCCCCCCCCC`, 94 to 96 °C.
Under `O=C1N=c2cc(Cl)c(Cl)cc2=NC1=O` stands more than 400 °C; under `N#CC(Cc1ccc(-c2ccccc2)cc1)C(=O)N=NO` (centres undefined), 172 °C; under `O=C(O)C(=NOc1ccccc1)c1ccccc1`, 105 °C.
`O=C(O)CN1C(=O)C(NC(=O)Nc2ccc(Cl)cc2)N=C(c2ccccc2)c2ccccc21` (centres undefined) registered a melting point of 178 to 180 °C.
Under `Nc1nc2c(ncn2[C@H]2C=C[C@@H](O)CC2)c(=O)[nH]1` (racemic) stands more than 300 °C.
For `CC(C)(C)OC(=O)N1CCC(Oc2ccc(C3=NNC(=O)CC3c3ccccn3)cc2)CC1` (centres undefined) the value was 213 to 214 °C; for `CCCCCCCCCCc1ccc(COc2ccc(-c3ncc(CCCCCCCCC)cn3)cc2)cc1`, 105 °C.
Under `OC1CSC(Oc2cncc(-c3cccnc3F)c2)C(O)C1O` (centres undefined) stands 193 to 196 °C; under `Cc1cc(C(C)(C)C)cc(C)c1C1C(=O)CC(C)(C)CC1=O`, 224 to 249 °C; under `O=C(Nc1cnns1)c1ccccc1`, 267 °C.
For the compound `O=C(CS(=O)Cc1ccco1)NCCCOc1cccc(C2OCCO2)c1` (centres undefined), the melting point is 95.3 to 96.1 °C.
On to `S=C1CN=C(c2ccccc2Cl)c2cc(Cl)ccc2N1`, for which the melting point was in the range of 251 to 253 °C.
Consider `Cc1c(-c2ccccc2)nc(N)nc1C1CCN(Cc2cccc(C#N)c2)CC1`, for which the melting point was determined as 176 °C.
Under `CC(=O)N(C)c1c(C(=O)c2cccc(C)c2)[nH]c2cc(Cl)ccc12` stands 166 to 171 °C; under `COC(=O)C1=C(Cl)/C(=N/OS(C)(=O)=O)CC(c2ccc(Cl)c(OC)c2F)N1` (centres undefined), 64 to 66 °C.
`COC1CN(c2ccc([N+](=O)[O-])cc2F)C1` yielded a melting point of 57.5 to 58 °C.
Compound `O=C1c2cc(O)ccc2OCC1Oc1ccccc1` (centres undefined) displayed a melting point of 142 to 146 °C.
As to `COC(=O)c1cc(I)c(F)c(I)c1Cl`, the melting point is 155 °C.
Consider `C=C(c1ccc(NC(=O)OC(C)(C)C)c(C)c1)C(F)(F)F`, for which the melting point lay in the range of 86 to 88 °C.
Turning to `CNC(=S)C1(c2cccnc2)CCCCC1=CCO` (centres undefined), the melting point was 172 to 173 °C.
Under `CCNC(=O)Nc1ccc(-c2nc3n(Cc4c(F)cccc4F)cc(C(=O)OC(C)C)c(=O)n3c2CN(C)Cc2ccccc2)cc1` stands 198 to 200 °C; under `CC(C)COCCOc1ccc(OCC(O)CNCCNC(=O)N2CCOCC2)cc1` (centres undefined), 95 to 96 °C; under `CCN(Cc1cc(Cl)ccc1OCC(C)C)c1ccc(C(=O)O)nn1`, 132 to 134 °C.
For `CS(=O)(=O)c1cc(C(O)C2CCCCC2)c2ccccc2n1` (centres undefined), the melting point was 83 °C.
Under `CC1=C(C)N(c2c(Br)cc(C)cc2Br)C2=NCCN21` stands 154 to 156 °C.
In turn, `CCn1cc(C(=O)O)c(=O)c2ccc(Cl)c(C)c21` gave a melting point of 221 to 222 °C.
For `C=C(C)Cc1c(C)c(NC=O)c(C)c(C)c1O` the value was 163 to 164 °C.
For `O=C(Nc1ccc2nc(CN3CCOCC3)ccc2c1)c1ccc(-c2ccccc2)cc1` the value was 214 to 215 °C.
Under `COC(=O)C1CC(C#N)(c2ccc(OC)c3oc(C(C)C)nc23)CCC1=O` (centres undefined) stands 150 °C.
The compound `C=CCOc1cc(O)c(C#N)c(Cl)c1` displayed a melting point of 175 to 176 °C.
For the compound `CCOC(=O)c1c(N)oc(-c2ccc([N+](=O)[O-])cc2)c1C(=O)OCC`, the melting point lay within 174 to 177 °C.
Turning to `CC(C)(C(=O)O)c1cn2nc(Cl)ccc2n1`, the melting point fell in the range of 159 to 161 °C.
Under `O=C(O)c1cc(SCCO)ccc1O` stands 136 °C; under `O=C(CCc1cccc2[nH]ccc12)c1ccccc1OCC1CO1` (centres undefined), 72 °C.
Regarding `Nc1cc(=O)n(Cc2ccc(-c3ccccc3)cc2)[nH]1`, the melting point was in the range of 185 to 186 °C.
In turn, `CC(C)Oc1ccc(Cc2cc3cccc(-c4cccc(C(=O)NCCO)c4)c3s2)cn1` had a melting point of 106 to 107 °C.
Regarding `O[C@@H]1CNCC[C@H]1NCc1ccccc1` (relative stereo), the melting point amounted to 136 °C.
For `CSc1nn2c(N3CCN(C)CC3)nc(C)nc2c1S(=O)(=O)c1ccccc1` the value was 169 to 171 °C; for `CC(Oc1ccc2c(c1)OCC(Cc1ccccn1)C2O)c1ccc2ccccc2n1` (centres undefined), 73 °C; for `O=C(O)c1ccc(N2Cc3ccccc3C2=O)cc1`, more than 295 °C.
Under `O=C(Nc1ccc2c(c1)C(=O)C1(CC1)O2)OCc1ccccc1` stands 118 to 119 °C; under `CCOC(=O)c1cn2c(n1)CNc1ccccc1-2`, 206 to 208 °C.
